A melting point compilation (Tetko et al.; mined from patent text by program, amines drawn as free bases though some values may be those of a salt)

| SMILES | melting point |
| --- | --- |
| CCCc1oc(-c2ccccc2)nc1COc1ccc(COc2cccc(CC(=O)O)c2)cc1 | 115 to 116 °C |
| Cc1nc2n(c(=O)c1CCO)CCCN2Cc1ccccc1 | 150 °C |
| COc1ccc(COC(=O)C2N=CSCC2(C)O)cc1 (centres undefined) | 102 to 103 °C |
| COc1ccc2c(c1)Cc1nnc(OC)n1C=C2 | 176 to 177 °C |
| C=CCNC(=O)c1ccc(-c2ccc3nnn(Cc4ccc5ncccc5c4)c3n2)cc1F | 162 to 164 °C |
| CC(=O)OCC1CCC2C3CCC4=CC(=O)CCC4(C)C3CCC12C (centres undefined) | 141 to 142 °C |
| Cc1c(F)c(=O)n(-c2cc(OC(C)C)c(Cl)cc2F)c(=O)n1C | 139 to 141 °C |
| Cc1ccc(N2C(=O)C(O)=C(C(=O)c3ccc(C(C)C)cc3)C2c2ccc(OC(F)F)cc2)nn1 (centres undefined) | 263 to 265 °C |
| CCOC(=O)c1cc2cc(-c3ccc(NC(C)=O)cc3)ccc2o1 | 174 to 176 °C |
| COC(=O)C1=C(C)NC(C)=C(C(=O)OCC2CCCO2)C1c1ccccc1Cl (centres undefined) | 165 to 167 °C |
| Nc1cc(-n2cc(C(=O)O)c(=O)c3cc(F)c(NC4CC4)c(Cl)c32)c(F)cc1F | 141 to 143 °C |
| CCOC(=O)c1ccc(S(=O)(=O)C(Br)(Br)Br)cc1 | 134 to 136 °C |
| C#Cc1cnc2sc(SCCCCCCC)nn2c1=O | 140 to 142 °C |
| Cc1ccc2c(c1)C(C1=CCN(C(C)O)CC1)CC2(O)c1ccc(F)cc1 (centres undefined) | 177 to 178 °C |
| CN(C)c1ccc(-n2c(N)nc3ccccc32)cc1-c1ccco1 | 208 to 210 °C |
| N#CC(=Cc1ccc(O)c(O)c1)C(=O)Nc1ccc(Br)cc1 | 277 to 278 °C |
| CCCc1nn(-c2ccc(C(F)(F)F)cn2)cc1CCCOc1c(CC)cnn1CC(=O)O | 135 to 136 °C |
| O=C(CCCCCCS(=O)(=O)c1ccccc1)c1ncco1 | 55 to 56 °C |
| CC(=O)SC(Cc1ccc(F)cc1)C(=O)O (centres undefined) | 44 to 46 °C |
| Cc1[nH]c2ccccc2c1/C=C/C(=O)c1ccncc1 | 268 to 272 °C |
| CCn1c(C(O)(C(C)C)C(C)C)nc(-c2ccncc2)c1-c1ccc(Cl)cc1 | 221 to 223 °C |
| OC1CSC(Oc2cccc(-c3cccnc3F)c2)C(O)C1O (centres undefined) | 160 °C |
| O=C(NCCCc1ccncc1)N(CCCc1ccccc1)C(c1ccccc1)c1ccccc1 | 123 to 125 °C |

| SMILES | melting point |
| --- | --- |
| CCOc1ccc(OCC(=O)OC(C)(C)C)c2c1C(=O)N(CCl)S2(=O)=O | 117 to 119 °C |
| O=C(NC12CC3CC(CC(C3)C1)C2)c1cccc2c1OCCO2 | 137 °C |
| O=c1c2ccccc2[nH]c2c(OCCCCBr)cccc12 | 180 to 181 °C |
| O=P(O)(O)C(O)(CCc1nccn1Cc1ccccc1)P(=O)(O)O | 238 °C |
| COc1ccc2c(OCc3cc(OC)c(F)cc3Br)cccc2c1 | 138 to 142 °C |
| O=C(NCC1CCC(CNS(=O)(=O)c2ccc3ccccc3c2)CC1)C1CCc2ccccc2C1 (centres undefined) | 225 to 226 °C |
| CCOC(=S)Nc1ccccc1NC(=S)NC(=O)OC | 172 °C |
| CC(C)c1nccn1Cc1ccc2c(c1)-c1[nH]nc(-c3ccsc3)c1C2 | 128 to 129 °C |
| CCCCCS(=O)(=O)NC(=O)/C=C/c1c(C)cc(C)n1Cc1ccc(Cl)cc1Cl | 170 to 171 °C |
| COc1cc(C(=O)CC(c2ccncc2)C(C)(C)[N+](=O)[O-])cc(OC)c1OC (centres undefined) | 214 to 216 °C |
| Cc1cccc(NC(=O)NCC(=O)N2[C@@H](C(=O)OC(C)(C)C)C[C@H](C(=O)O)[C@H]2c2ccccc2)c1 (racemic) | 160 °C |
| O=C(O)c1cc(-n2c(-c3ccc(Br)cc3)cc3c2CCCC3)ccc1O | 231 to 232 °C |
| COC(=O)CNCCNC(=O)c1nc(Cl)c(N)nc1N | 145 to 146 °C |
| Nc1cc(-c2ccncc2)n[nH]c1=O | > 300 °C |
| CCCCC/C(=C\C=C\C(=O)O)c1ccc(OC)c(OC)c1 | 98 to 99.5 °C |
| N#Cc1ccc(CNC(=O)c2cccc(C#CCn3ccnn3)c2)cc1 | 145 to 147 °C |
| CN(C)CCCN1N=C2C(=Cc3ccccc3)CS(=O)CC2C1c1ccccc1 (centres undefined) | 155 to 160 °C |
| CC(=O)Oc1ccc(CN2C(=O)C(=O)c3ccccc32)cc1 | 159 to 161 °C |
| Cc1ccc(-c2nc(N)n3nc(-c4ccco4)nc3n2)cc1 | > 275 °C |
| CCNC(=NS(=O)(=O)c1ccc(Cl)cc1)N1CC(c2ccccc2)C(c2ccc(Cl)cc2)=N1 (single isomer, unassigned; (-)) | 172 to 175 °C |
| CC(C)(C)OC(=O)N1CCN(C(=O)c2ccc3n2Cc2ccccc2N(C(=O)C2=CC=C(c4ccccc4)C(C)(C(F)(F)F)C2)C3)CC1 (centres undefined) | 104 to 121 °C |
| O=NCNC1=Nc2ccc(Cl)cc2N(c2ccccc2)C(=O)C1 | 121 to 124 °C |
| CCCOC(C)c1ccc(-c2ccc(C(=O)O)cc2)cc1 (single isomer, unassigned; (+)) | 172 °C |

Other lines, results leading:

| melting point | SMILES |
| --- | --- |
| 170 to 172 °C | Nc1ccc(S(=O)c2ccc(Sc3ccc(Cl)c([N+](=O)[O-])c3)cc2)cc1[N+](=O)[O-] (centres undefined) |
| 238 to 239 °C | CC(C)(C)CC(NC(=O)c1cccc(Cl)c1)Nc1c(Nc2cccnc2)c(=O)c1=O (centres undefined) |
| 108 to 109 °C | C(=C\c1nc(COc2ccc(CCCCCCn3ccnc3)cc2)co1)/c1ccccc1 |
| > 250 °C | COc1ccc(-c2nc(C(=O)Nc3nccs3)c(-c3ccc(C)cc3)[nH]2)c2ccccc12 |
| 180 to 184 °C | COC(=O)CSc1nc(Nc2ccc(N3CCC(C)CC3)cc2)ncc1[N+](=O)[O-] |
| 76 to 78 °C | COc1cc(CCC(=O)CC(=O)c2ccccc2)ccc1O |
| 158 to 159 °C | CCNC(=S)c1c(Cl)cccc1[Si](C)(C)C |
| 170 to 173 °C | CC1(C)CN(C2CC3(C)C(CCC4C5CCC(C#N)C5(C)CCC43)CC2O)CCO1 (centres undefined) |
| 145 °C | O=C(NC1CCC(CCN2CCN(c3nccc4c3OCC4)CC2)CC1)C1CCCO1 (racemic) |
| 125 to 129 °C | COC(=O)C(C(=O)OC)=C1SC=CS1 |
| 92 to 93 °C | CNC(=O)OC1CCC2(CO2)C(C2(C)OC2CC=C(C)C)C1OC (centres undefined) |
| 146 to 147 °C | COc1cccc(-c2cc(O)c(SCc3ccccc3)c(=O)o2)c1 |
| 163 to 164 °C | COC(=O)c1c(N(C)C(C)=O)cc(C)cc1N(C)C(C)=O |
| 131 to 132 °C | N#CCN(CC#N)CCN(CC#N)CC#N |
| 126 to 128 °C | CC(=O)Oc1ccc2c(c1)Cc1cc(C(C)=O)ccc1-2 |
| 96 to 98 °C | CCCCCCCCCCCCCCCCCCNC(=O)OCC(CNS(=O)(=O)CCCI)NC(=O)OCCCC (centres undefined) |
| 97 to 99 °C | CC(=O)OC1CSC(Oc2cncc(S(=O)(=O)c3ccccc3)c2)C(OC(C)=O)C1OC(C)=O (centres undefined) |
| 92 to 94 °C | CCCCOc1cc(-c2ccccc2)c(OCC(=O)O)c(-c2ccccc2)c1 |
| 174 to 175 °C | CC(=O)c1ccc(NC2=Nc3ccc(Cl)cc3CS2)cc1 |
| 110 to 115 °C | COC(=O)c1ccc(C#CC(C)(O)c2ccc3c(c2)C(C)(C)CCC3(C)C)cc1O (centres undefined) |
| 80 to 82 °C | CC(=O)OCCC1Cc2c(C)c(OCc3ccccc3)c(C)c(C)c2O1 (racemic) |
| 177 to 179 °C | CCOC(=O)Nc1cc(C(C)C(O)(Cn2cncn2)c2ccc(F)cc2F)ccn1 (centres undefined) |
| 106 to 108 °C | NC(=O)c1ccc(CCCNCC(O)c2ccccc2)cc1 (centres undefined) |
